Experimental data reported in patent US12281363B2, “Methods for detecting antiviral-drug resistant virus” (Secretary of State for Health and Social Care, priority 2018, dated 2025).
Read-outs that look alike come from different tables or passages of the source.

System: HSV-2
Test: Plaque reduction assay, HSV-2 clinical isolates on Vero cells
Type: cell-based
Conditions: Human alphaherpesvirus 2, Vero
Excerpt: Viral isolates were used to infect a sub-confluent monolayer of Vero cells at a concentration of 75 or 50 plaque forming units (PFU) per well for HSV-1 and HSV-2, respectively. […] CMC medium typically used to create a semisolid interface and prevents indiscrimate viral spreading. Other materials (e.g. agar) may also be used to create this interface.
Cells were fixed with 10% formalin and stained with crystal violet before enumeration of the plaques (microscopic observation or use of fluorescent antibodies for detection is also suitable). The data obtained from these experiments were then expressed as percent inhibition of viral infectivity relative to the no drug control.
Definitions of phenotypic drug susceptibility classification as sensitive or resistant were as follows: ACV, <3 μM or >40 μM; PCV, <10 μM or >40 μM; CDV, <24 μM or >30 μM; FOS, <250 μM or >400 μM; and ACV, <6.5 μM or >40 μM; PCV, <38 μM or >40 μM; FOS, <250 μM or >400 μM for HSV-1 and HSV-2, respectively. Any IC50 values falling in between these sensitive and resistant cut-offs were reported as intermediate resistance.
The phenotype (i.e. reactivity to a drug) of the virus was characterised by the plaque reduction assay as described above. The present inventors have characterised the resistance-causing phenotype of a large number of TK and DNA pol mutations.

Nc1nc2c(ncn2CCC(CO)CO)c(=O)[nH]1 [Penciclovir, penciclovir]
IC50 (isolate HPG001, HSV-2 TK A125T (373G>A), read-out: Drug susceptibility (IC50 value)): 8.2 µM
IC50 (isolate HPG001, HSV-2 TK A125T (373G>A), read-out: Drug susceptibility Penciclovir (PCV)): < 38 µM
IC50 (isolate HPG001, HSV-2 pol H714R (2141A>G), read-out: Drug susceptibility (IC50 value)): 8.2 µM
IC50 (isolate HPG001, HSV-2 pol H714R (2141A>G), read-out: Drug susceptibility Penciclovir (PCV)): < 38 µM
IC50 (isolate HPG004, HSV-2 pol M494T (1481T>C), also pol S729N, read-out: Drug susceptibility (IC50 value)): > 160 µM
IC50 (isolate HPG004, HSV-2 pol M494T (1481T>C), also pol S729N, read-out: Drug susceptibility Penciclovir (PCV)): > 40 µM
IC50 (isolate HPG007, HSV-2 pol R628G (1882C>G), read-out: Drug susceptibility (IC50 value)): > 160 µM
IC50 (isolate HPG007, HSV-2 pol R628G (1882C>G), read-out: Drug susceptibility Penciclovir (PCV)): > 40 µM
IC50 (isolate HPG017, HSV-2 TK Q186H (558G>T), read-out: Drug susceptibility (IC50 value)): 64.7 µM
IC50 (isolate HPG017, HSV-2 TK Q186H (558G>T), read-out: Drug susceptibility Penciclovir (PCV)): > 40 µM
IC50 (isolate HPG022, HSV-2 TK E213D (639A>C), read-out: Drug susceptibility (IC50 value)): 26.9 µM
IC50 (isolate HPG022, HSV-2 TK E213D (639A>C), read-out: Drug susceptibility Penciclovir (PCV)): < 38 µM
IC50 (isolate HPG022, HSV-2 pol D174Y (520G>T), read-out: Drug susceptibility (IC50 value)): 26.9 µM
IC50 (isolate HPG022, HSV-2 pol D174Y (520G>T), read-out: Drug susceptibility Penciclovir (PCV)): < 38 µM
IC50 (isolate HPG023, HSV-2 TK Q186H (558G>T), read-out: Drug susceptibility (IC50 value)): 31.1 µM
IC50 (isolate HPG023, HSV-2 TK Q186H (558G>T), read-out: Drug susceptibility Penciclovir (PCV)): < 38 µM
IC50 (isolate HPG024, HSV-2 TK E213D (639A>C), read-out: Drug susceptibility (IC50 value)): 9.08 µM
IC50 (isolate HPG024, HSV-2 TK E213D (639A>C), read-out: Drug susceptibility Penciclovir (PCV)): < 38 µM
IC50 (isolate HPG028, HSV-2 TK 98stop or A94fs (276delG, 278delG, 279delG, or 280delG), read-out: Drug susceptibility (IC50 value)): > 160 µM
IC50 (isolate HPG028, HSV-2 TK 98stop or A94fs (276delG, 278delG, 279delG, or 280delG), read-out: Drug susceptibility Penciclovir (PCV)): > 40 µM
IC50 (isolate HPG028, HSV-2 pol E776Q (2326G>C), also TK deletion (G) nt 276-280, read-out: Drug susceptibility (IC50 value)): > 160 µM
IC50 (isolate HPG028, HSV-2 pol E776Q (2326G>C), also TK deletion (G) nt 276-280, read-out: Drug susceptibility Penciclovir (PCV)): > 40 µM
IC50 (isolate HPG028, HSV-2 pol R775C, R775W (2323C>T; 2325C>G), also TK deletion (G) nt 276-280, read-out: Drug susceptibility (IC50 value)): > 160 µM
IC50 (isolate HPG028, HSV-2 pol R775C, R775W (2323C>T; 2325C>G), also TK deletion (G) nt 276-280, read-out: Drug susceptibility Penciclovir (PCV)): > 40 µM
IC50 (isolate HPG030, HSV-2 TK Q90stop (268C>T), read-out: Drug susceptibility (IC50 value)): > 160 µM
IC50 (isolate HPG030, HSV-2 TK Q90stop (268C>T), read-out: Drug susceptibility Penciclovir (PCV)): > 40 µM
IC50 (isolate HPG030, HSV-2 pol E761K (2281G>A), also TK Q90stop, read-out: Drug susceptibility (IC50 value)): > 160 µM
IC50 (isolate HPG030, HSV-2 pol E761K (2281G>A), also TK Q90stop, read-out: Drug susceptibility Penciclovir (PCV)): > 40 µM
IC50 (isolate HPG034, HSV-2 TK L313S (938A>C), read-out: Drug susceptibility Penciclovir (PCV)): > 40 µM
IC50 (isolate HPG036, HSV-2 TK E84K (250G>A), read-out: Drug susceptibility (IC50 value)): > 160 µM
IC50 (isolate HPG036, HSV-2 TK E84K (250G>A), read-out: Drug susceptibility Penciclovir (PCV)): > 40 µM
IC50 (isolate HPG038, HSV-2 TK R34C (100C>T), read-out: Drug susceptibility (IC50 value)): 9.64 µM
IC50 (isolate HPG038, HSV-2 TK R34C (100C>T), read-out: Drug susceptibility Penciclovir (PCV)): < 38 µM
IC50 (isolate HPG044, HSV-2 TK M86L (256A>C), read-out: Drug susceptibility (IC50 value)): > 160 µM
IC50 (isolate HPG044, HSV-2 TK M86L (256A>C), read-out: Drug susceptibility Penciclovir (PCV)): > 40 µM
IC50 (isolate HPG048, HSV-2 TK Q90stop (268C>T), read-out: Drug susceptibility (IC50 value)): > 160 µM
IC50 (isolate HPG048, HSV-2 TK Q90stop (268C>T), read-out: Drug susceptibility Penciclovir (PCV)): > 40 µM
IC50 (isolate HPG048, HSV-2 pol E761K (2281G>A), also TK Q90stop, read-out: Drug susceptibility (IC50 value)): > 160 µM
IC50 (isolate HPG048, HSV-2 pol E761K (2281G>A), also TK Q90stop, read-out: Drug susceptibility Penciclovir (PCV)): > 40 µM
IC50 (isolate HPG057, HSV-2 TK 98stop or A94fs (276delG, 278delG, 279delG, or 280delG), read-out: Drug susceptibility (IC50 value)): > 160 µM
IC50 (isolate HPG057, HSV-2 TK 98stop or A94fs (276delG, 278delG, 279delG, or 280delG), read-out: Drug susceptibility Penciclovir (PCV)): > 40 µM
IC50 (isolate HPG058, HSV-2 TK 183stop or P154fs (458delC, 459delC, 460delC, or 461delC), read-out: Drug susceptibility (IC50 value)): > 160 µM
IC50 (isolate HPG058, HSV-2 TK 183stop or P154fs (458delC, 459delC, 460delC, or 461delC), read-out: Drug susceptibility Penciclovir (PCV)): > 40 µM
IC50 (read-out: Drug susceptibility (IC50 value), isolate HPG034, HSV-2 TK L313S (938A>C)): > 160 µM
IC50 (read-out: Drug susceptibility (IC50 value), isolate HPG056, HSV-2 pol M447L (1339A>C)): 8.61 µM
IC50 (read-out: Drug susceptibility Penciclovir (PCV), isolate HPG056, HSV-2 pol M447L (1339A>C)): < 38 µM
